Measured values: patent US8629135B2, “Pharmaceutical compositions comprising RET inhibitors and methods for the treatment of cancer” (Queen's University at Kingston, priority 2008, dated 2014)
Where “and” joins values, the source holds several entries; their conditions need not be identical. Equal entries are not always repeated. Entries after “also recorded” stand apart in the source; their conditions may differ. Structures can show the parent of a compound that is named as a salt. Where two headings read alike, the source gives them in different places. Values belong to the molecule of their own block, whether it stands above or below them.

Key:
RET [1] = target: T1, RET (Homo sapiens (Human), UniProt P07949); assay: Protein based RET kinase assay with purified recombinant GST-RET; type: biochemical
Target sequence in this assay (P07949 29-1114): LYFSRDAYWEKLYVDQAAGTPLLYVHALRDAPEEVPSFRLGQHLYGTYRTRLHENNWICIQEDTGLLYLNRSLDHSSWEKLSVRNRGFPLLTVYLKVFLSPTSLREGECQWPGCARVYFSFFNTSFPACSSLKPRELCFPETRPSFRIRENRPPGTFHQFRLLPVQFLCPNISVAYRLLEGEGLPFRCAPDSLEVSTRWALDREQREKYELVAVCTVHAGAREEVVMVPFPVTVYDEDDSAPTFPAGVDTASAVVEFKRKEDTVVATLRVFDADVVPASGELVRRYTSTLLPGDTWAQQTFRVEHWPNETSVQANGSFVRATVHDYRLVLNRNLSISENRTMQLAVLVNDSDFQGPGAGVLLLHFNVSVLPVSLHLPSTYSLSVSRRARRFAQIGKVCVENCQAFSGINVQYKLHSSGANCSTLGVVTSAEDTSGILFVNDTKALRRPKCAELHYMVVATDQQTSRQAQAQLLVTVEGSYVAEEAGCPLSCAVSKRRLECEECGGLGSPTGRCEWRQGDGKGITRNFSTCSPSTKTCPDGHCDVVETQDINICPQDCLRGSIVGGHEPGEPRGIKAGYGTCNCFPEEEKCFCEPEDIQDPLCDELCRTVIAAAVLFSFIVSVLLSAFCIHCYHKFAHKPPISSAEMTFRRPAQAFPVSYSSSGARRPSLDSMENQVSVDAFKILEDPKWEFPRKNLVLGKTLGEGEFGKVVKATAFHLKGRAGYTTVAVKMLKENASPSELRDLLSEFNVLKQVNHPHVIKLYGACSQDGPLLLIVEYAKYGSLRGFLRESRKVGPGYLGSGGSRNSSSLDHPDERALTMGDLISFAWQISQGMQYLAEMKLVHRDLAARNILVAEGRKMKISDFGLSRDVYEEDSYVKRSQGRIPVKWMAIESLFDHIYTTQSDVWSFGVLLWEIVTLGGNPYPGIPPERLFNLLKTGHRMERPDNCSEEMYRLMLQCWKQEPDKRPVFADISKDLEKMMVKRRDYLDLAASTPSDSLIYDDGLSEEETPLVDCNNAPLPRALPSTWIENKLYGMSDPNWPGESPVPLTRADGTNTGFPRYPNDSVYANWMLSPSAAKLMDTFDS

RET [2] = target: T1, RET; assay: RET autophosphorylation (pY905 Western blot) in HEK293 cells stably expressing RET; type: cell-based
Target sequence in this assay (P07949 29-1114 limits assumed): as the sequence (P07949 29-1114) above

MiaPaca-2 tumours = assay: Xenograft study, subcutaneous MiaPaca-2 tumours; type: in vivo; conditions: MiaPaca-2 xenograft, nude mice, intraperitoneal; SW-01 50 mg/kg, gemcitabine 120 mg/kg
[3] = test system: RET-expressing HEK293 cells
[4] = test system: HEK293 cells stably expressing RET
[5] = test system: MiaPaca-2 cells expressing RET; conditions: MiaPaca-2, GDNF + SW-01 (5 μM) relative to GDNF alone
BxPc3 tumours = conditions: BxPc3 xenograft, nude mice, 50 mg/kg intraperitoneal every three days
TT cells [6] = conditions: 24 hours, 10× magnification
MiaPaca-2 cells = conditions: presence of GDNF
RET V804M mutant = RET V804M mutant (Homo sapiens (Human), UniProt P07949, V804M); conditions: HEK293 cells, 2 h
RET V804M mutant, sequence (P07949 29-1114 V804M): as the sequence (P07949 29-1114) above, with V776M counted along it

RET [7] = target: T1, RET; design: key to the marks not given beside the values; conditions: RET phosphorylation levels
Target sequence in this assay (P07949 29-1114): as the sequence (P07949 29-1114) above

TT cells [8] = test system: TT cells
[9] = test system: RET-mediated activation of ERK; conditions: increasing concentrations, HEK293 cells
RET M918T mutant = RET M918T mutant (Homo sapiens (Human), UniProt P07949, M918T); conditions: HEK293 cells, 2 h
RET M918T mutant, sequence (P07949 29-1114 M918T): as the sequence (P07949 29-1114) above, with M890T counted along it

MCF7 cells = conditions: presence of GDNF
ERK or AKT pathways = conditions: parental HEK 293 cells not expressing RET, increasing concentration
[10] = purified protein assay, read-out: IC50
[11] = cell based assay, read-out: EC50
[12] = varying concentrations, 2 hours, HEK293 cells expressing RET

Compound: NCC1c2ccccc2CCc2ccccc21 [SW-08, 10,11-Dihydro-5H-dibenzo[a,d]cycloheptene-5-methanamine]
IC50 (RET [1]; [10]): 5 µM
EC50 (RET [2]): 20 µM

Compound: Nc1ccn([C@@H]2O[C@H](CO)[C@@H](O)C2(F)F)c(=O)n1 [gemcitabine, reference compound]
tumour growth (MiaPaca-2 tumours): no statistical difference between SW-01 and gemcitabine treatment groups

IC50 (RET [1]; [10]): > 20 µM
EC50 (RET [2]; [11]): > 20 µM
Compound: CN(C)CCC=C1c2ccccc2C(C)(C)c2ccccc21 [SW-14, Melitracin]

Compound: CNCCC=C1c2ccccc2CCc2ccccc21.Cl [SW-02, Nortriptyline Hydrochloride]
IC50 (RET [1]; purified protein assay, Hydrochloride, read-out: IC50): 5 µM
EC50 (RET [2]; EC50, cell based assay): > 20 µM
RET autophosphorylation (RET [2]; varying concentrations, 2 hours, HEK293 cells expressing RET, Hydrochloride): inhibited RET activity; also recorded: decreased RET activity

Compound: CNCCC=C1c2ccccc2CCc2ccccc21 [SW-04, Nortriptyline]
IC50 (RET [1]; [10]): 1.5 µM
EC50 (RET [2]; EC50, cell based assay): 10 µM
RET autophosphorylation (RET [2]; [12]): did not affect RET autophosphorylation

Compound: CN(C)CCC=C1c2ccccc2C=Cc2ccccc21.Cl [SW-01, Cyclobenzaprine Hydrochloride]
RET-mediated colony formation in soft agar [3]: inhibits RET-mediated colony formation
IC50 (RET [1]; kinase assays using purified recombinant RET proteins, Hydrochloride, read-out: IC50 for RET): 0.3 µM and 0.307 µM
IC50 (RET [1]; [10]): 0.3 µM
RET autokinase activity (RET [1]; purified recombinant RET, pY905 Western blot): significantly reduced RET autokinase activity
RET-mediated cell proliferation (MTT) [4]: reduces RET-mediated cell proliferation
cell migration (wound closure) [5]: cell migration was inhibited
apoptosis (NCIH69 cells): caused apoptosis in NCIH69 cells in a dose-dependent fashion
tumour growth (BxPc3 tumours): caused slowed and reduced tumour growth
cell morphology (TT cells [6]): exhibited induced morphological changes
cell proliferation (MTT) (BxPc3): caused decreased cell proliferation
apoptosis (MiaPaca-2 cells): caused dose-dependent apoptosis
RET phosphorylation (pRET/RET) (RET V804M mutant): inhibited by SW-01 in a concentration dependent fashion
SW-01 Inhibition (10 μM) (RET [7]): ++
cell proliferation (MTT) (MiaPaca-2): caused decreased cell proliferation
apoptosis (TT cells [8]): led to apoptosis
tumour growth (MiaPaca-2 tumours): no statistical difference between SW-01 and gemcitabine treatment groups
RET autophosphorylation (RET [2]; 10 μM for 2 hours, HEK293 cells expressing activated wildtype RET, Hydrochloride): significantly inhibited RET autophosphorylation
RET autophosphorylation (RET [2]; 10 μM for 2 hours, HEK293 cells expressing activated wildtype RET, listed as NSC78206, Hydrochloride): significant RET inhibition
EC50 (RET [2]; EC50, cell based assay): 1 µM
expression levels of RET (RET [2]; pan RET antibody, HEK293 cells): did not affect expression levels of RET
RET autophosphorylation (RET [2]; [12]): blocked or dramatically reduced
amount of pERK [9]: significantly reduced
RET phosphorylation (pRET/RET) (RET M918T mutant): inhibited by SW-01 in a concentration dependent fashion
apoptosis (MCF7 cells): caused apoptosis in MCF7 cells in a dose-dependent fashion
effect on ERK or AKT pathways (ERK or AKT pathways): did not affect ERK or AKT pathways

IC50 (RET [1]; [10]): 2.5 µM
EC50 (RET [2]; [11]): 7 µM
Compound: CN(C)CCOC1c2ccccc2C=Cc2ccccc21 [SW-13, [2-(5H-Dibenzo[a,d]cyclohepten-5-yloxy)-ethyl]-dimethyl-amine]

Compound: CCN(CC)CCCOC(=O)CC1c2ccccc2C=Cc2ccccc21 [SW-12, (5H-Dibenzo[a,d]cyclohepten-5-yl)-acetic acid 3-diethylamino-propyl ester]
IC50 (RET [1]; [10]): 4 µM
EC50 (RET [2]): > 20 µM

IC50 (RET [1]; [10]): > 20 µM
EC50 (RET [2]; [11]): > 20 µM
Compound: NCCCC1(CCCN)c2ccccc2-c2ccccc21 [SW-10, 9,9-Bis(3-aminopropyl)-fluorine]

IC50 (RET [1]; [10]): > 20 µM
EC50 (RET [2]; [11]): > 20 µM
Compound: CN(CCCN1c2ccccc2CCc2ccccc21)CC(=O)c1ccc(Cl)cc1 [SW-06, Lofepramine]

Compound: CNCCC=C1c2ccccc2C=Cc2ccccc21 [SW-15, Norcyclo- benzaprine (NCBA)]
EC50 (RET [2]): 1 µM
RET autophosphorylation (RET [2]; [12]): inhibited RET

IC50 (RET [1]; [10]): > 10 µM
EC50 (RET [2]; [11]): > 20 µM
Compound: CN(C)CCCC1(O)c2ccccc2C=Cc2ccccc21 [SW-11, 5-(3-Dimethylamino-propyl)-5H-dibenzo[a,d]cyclohepten-5-ol]

Compound: C[N+](C)([O-])CCC=C1c2ccccc2CCc2ccccc21.Cl [SW-03, 3-(10,11-Dihydro-5H-dibenzo[a,d]cyclohepten-5-ylidene)-N,N-dimethyl-1-propanamine N-oxide hydrochloride]
IC50 (RET [1]; [10]): 10 µM
EC50 (RET [2]): > 20 µM
RET autophosphorylation (RET [2]; [12]): did not affect RET autophosphorylation

Compound: CN(C)CCC=C1c2ccccc2CCc2ccccc21 [SW-05, Amitriptyline]
IC50 (RET [1]; [10]): 1 µM
EC50 (RET [2]): 5 µM
RET autophosphorylation (RET [2]; [12]): inhibited RET activity; also recorded: decreased RET activity

Compound: CN(C)CCNC1c2ccccc2-c2ccccc21 [SW-09, N′-Fluoren-9-yl-N,N-dimethyl-ethylenediamine dihydrochloride]
IC50 (RET [1]; [10]): > 20 µM
EC50 (RET [2]; [11]): > 20 µM
